Reference: PMC12062745, “The immunostimulatory activity of Epimedium flavonoids involves toll-like receptor 7/8” (Frontiers in Pharmacology, 2025)

Legend:
Assay in all cases: SPR (Biacore S200)
Format in all cases: binding
recombinant mouse TLR8 [1] = target: T1, recombinant mouse TLR8 (Mus musculus, UniProt P58682); details: read-out: KD8
T1 construct: recombinant from Escherichia coli supernatant
T1 sequence (P58682 24-1032): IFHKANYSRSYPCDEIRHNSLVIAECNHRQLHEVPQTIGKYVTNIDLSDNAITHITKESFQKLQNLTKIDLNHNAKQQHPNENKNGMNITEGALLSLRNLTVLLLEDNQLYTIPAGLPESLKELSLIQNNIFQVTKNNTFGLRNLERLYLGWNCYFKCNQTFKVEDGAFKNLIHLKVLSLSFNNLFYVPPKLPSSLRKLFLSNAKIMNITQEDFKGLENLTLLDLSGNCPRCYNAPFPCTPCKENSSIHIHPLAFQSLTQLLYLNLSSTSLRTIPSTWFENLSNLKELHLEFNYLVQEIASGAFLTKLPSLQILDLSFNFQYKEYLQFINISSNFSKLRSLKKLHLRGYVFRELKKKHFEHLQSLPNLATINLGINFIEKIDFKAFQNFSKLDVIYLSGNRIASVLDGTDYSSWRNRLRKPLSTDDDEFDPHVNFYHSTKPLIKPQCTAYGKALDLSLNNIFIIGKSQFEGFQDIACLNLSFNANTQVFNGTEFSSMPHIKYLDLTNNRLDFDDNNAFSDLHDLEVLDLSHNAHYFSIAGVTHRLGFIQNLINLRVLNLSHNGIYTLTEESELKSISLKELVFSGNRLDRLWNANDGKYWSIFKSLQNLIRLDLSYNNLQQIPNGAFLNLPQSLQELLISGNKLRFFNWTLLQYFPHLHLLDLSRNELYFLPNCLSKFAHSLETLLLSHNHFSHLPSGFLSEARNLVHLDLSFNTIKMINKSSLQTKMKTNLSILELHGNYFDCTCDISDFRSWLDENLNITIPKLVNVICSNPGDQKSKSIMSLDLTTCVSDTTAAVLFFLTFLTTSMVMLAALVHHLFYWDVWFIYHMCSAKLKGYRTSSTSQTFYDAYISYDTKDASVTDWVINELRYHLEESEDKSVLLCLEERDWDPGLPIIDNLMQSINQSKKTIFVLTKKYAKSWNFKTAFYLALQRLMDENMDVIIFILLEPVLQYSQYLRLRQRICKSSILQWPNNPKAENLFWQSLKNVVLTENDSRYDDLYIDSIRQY

recombinant mouse TLR7 = target: T2, recombinant mouse TLR7 (Mus musculus, UniProt P58681); details: 80 μM compound
T2 construct: recombinant from Escherichia coli supernatant
T2 sequence (P58681 27-1050): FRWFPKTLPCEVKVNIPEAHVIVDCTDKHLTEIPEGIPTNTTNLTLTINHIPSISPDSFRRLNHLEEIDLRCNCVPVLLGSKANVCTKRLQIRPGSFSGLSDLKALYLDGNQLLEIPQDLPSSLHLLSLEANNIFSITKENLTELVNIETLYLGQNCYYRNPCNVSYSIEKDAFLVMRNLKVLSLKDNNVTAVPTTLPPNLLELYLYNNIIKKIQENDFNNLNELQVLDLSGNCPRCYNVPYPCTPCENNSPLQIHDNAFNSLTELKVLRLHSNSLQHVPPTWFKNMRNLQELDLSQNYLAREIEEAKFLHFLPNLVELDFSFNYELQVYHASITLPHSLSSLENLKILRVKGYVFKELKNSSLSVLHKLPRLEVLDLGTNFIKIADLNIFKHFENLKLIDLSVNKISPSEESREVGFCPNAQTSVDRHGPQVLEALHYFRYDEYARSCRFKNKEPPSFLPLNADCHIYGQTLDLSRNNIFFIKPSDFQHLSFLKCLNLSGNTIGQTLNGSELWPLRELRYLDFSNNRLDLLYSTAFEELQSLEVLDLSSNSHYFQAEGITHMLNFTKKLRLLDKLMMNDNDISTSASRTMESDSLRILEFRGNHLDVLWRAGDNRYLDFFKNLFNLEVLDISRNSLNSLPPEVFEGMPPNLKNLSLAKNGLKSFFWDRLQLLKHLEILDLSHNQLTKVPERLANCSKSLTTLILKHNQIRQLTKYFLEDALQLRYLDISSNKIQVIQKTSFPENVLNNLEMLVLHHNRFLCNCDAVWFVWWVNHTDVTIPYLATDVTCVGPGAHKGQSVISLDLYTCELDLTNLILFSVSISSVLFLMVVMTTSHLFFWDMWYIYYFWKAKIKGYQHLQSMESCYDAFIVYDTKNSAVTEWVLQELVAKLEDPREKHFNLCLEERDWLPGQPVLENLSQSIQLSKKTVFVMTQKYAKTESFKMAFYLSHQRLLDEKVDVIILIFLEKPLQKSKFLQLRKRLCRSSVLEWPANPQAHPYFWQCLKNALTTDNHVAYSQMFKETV

recombinant mouse TLR8 [2] = target: T1, recombinant mouse TLR8; details: 80 μM compound

| Kd (recombinant mouse TLR8 [1]) | response value (RU) (recombinant mouse TLR8 [2]) | Compound | SPR (Biacore S200) (recombinant mouse TLR7) |
| --- | --- | --- | --- |
| 10.3 µM |  | COc1ccc(-c2oc3c(CC=C(C)C)c(O)cc(O)c3c(=O)c2O[C@@H]2O[C@@H](C)[C@H](O)[C@@H](O)[C@H]2O)cc1 [icariin II] | SPR analysis revealed that icariin II exhibited the highest binding response to TLR7 |
|  | 43 RU | COc1ccc(-c2oc3c(CC=C(C)C)c(O[C@@H]4O[C@H](CO)[C@@H](O)[C@H](O)[C@H]4O)cc(O)c3c(=O)c2O)cc1 [icariin I] |  |
